Test results as given in patent publication US20060019952A1, “Anti-viral therapeutics” (ELIXIR PHARMACEUTICALS, INC., priority 2004, published 2006).

Target: T1, GFP-hSIRT2 isoform 1 (Homo sapiens, UniProt Q8IXJ6)
T1 construct: expressed in transfected cells; host or cells: HeLa
T1 sequence (Q8IXJ6 1-389): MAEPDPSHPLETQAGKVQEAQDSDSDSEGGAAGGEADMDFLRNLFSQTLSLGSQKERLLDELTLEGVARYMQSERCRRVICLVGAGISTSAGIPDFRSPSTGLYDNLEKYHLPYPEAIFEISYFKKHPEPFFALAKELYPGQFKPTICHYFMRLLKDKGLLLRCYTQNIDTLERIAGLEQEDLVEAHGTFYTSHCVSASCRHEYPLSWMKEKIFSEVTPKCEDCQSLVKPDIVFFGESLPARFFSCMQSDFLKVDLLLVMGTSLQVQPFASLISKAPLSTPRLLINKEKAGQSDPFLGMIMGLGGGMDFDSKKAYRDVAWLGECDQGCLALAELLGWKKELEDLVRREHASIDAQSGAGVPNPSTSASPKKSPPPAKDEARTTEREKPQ
Test: Acetylated tubulin staining in HeLa cells transfected with GFP-hSIRT2 isoform 1
Type: cell-based
Conditions: 50 μM compound with 1 μM TSA, added 36 hours post transfection, fixed next morning, versus DMSO
Experimental: HeLa cells were transfected with GFP-hSIRT2 isoform 1. At 36 hours post transfection 1 μM of TSA and either DMSO or 50 μM of Compound 8 was added. The next morning cells were fixed, permeabilized, and stained for acetylated tubulin.

tubulin acetylation in cells expressing SIRT2 (staining for acetylated tubulin): more highly acetylated
SMILES: NC(=O)COC(=O)c1sc2ccccc2c1Cl [Compound 8, 3-Chloro-benzo[b]thiophene-2-carboxylic acid carbamoylmethyl ester]
